Patent EP0167710A1, “Use of benomyl for the manufacture of a medicament against ichthyophthyriasis” (Eduro World Investments Inc., priority 1984, dated 1986)

Columns and labels:
[1] = tested on: Ichthiophthyriasis auslösenden Parasiten; test: Treatment of Ichthyophthyriasis-infected fish in aquaria (Beispiel 1); format: in vivo; conditions: 6 days after start of treatment, 16 Sumatrabarben per 40 Liter tank, Benomyl 0,2 mg/ml, Malachitgrün 0,03 mg/ml, repeated at half dose after 3 bis 5 Tagen; for Ausfälle: 25 + 1°C
Method: (§1) Unter gleichen Bedingungen wurden in drei Fischbehältern A, B und C (40 Liter) je 16 Sumatrabarben ausgesetzt. Die Wassertemperatur betrug 25 + 1°C. Nach eintägiger Haltung wurden die Fische in Kontakt mit Ichthiophthyriasis auslösenden Parasiten gebracht. Nach visuell sichtbarer Infektion wurden zugesetzt: • Im Aquarium A: Reines Wasser • Im Aquarium B: 1-(N-Butylcarbamoyl)-2-(methoxycarbonyl-amino)-benzimidazol (als pulverförmiges Gemisch. Konzentration an Wirkstoff 0,2 mg/ml) • Im Aquarium C: Malachitgrün (Wirkstoffkonzentrat-0,03 mg/ml)
(§2) Die Zugabe wurde mit der halben Dosierung nach 3 bis 5 Tagen wiederholt.

[2] = tested on: Ichthiophthyriasis auslösenden Parasiten; test: Treatment of Ichthyophthyriasis-infected fish in aquaria (Beispiel 2); format: in vivo; conditions: after 7 Behandlungstagen; 18 Neonsalmler per tank; conditions of Beispiel 1, repeat dose equal to the initial dose
Method: as §1, §2
Unter den Bedingungen des Beispiels 1 wurden jeweils 18 Neonsalmler behandelt. Die Nachdosierung erfolgte jedoch in Höhe der Anfangsdosierung.

SMILES	Ausfälle [1] [Tieren pro Becken]	Schuppenbild [1]	Ausfälle [2]
CN(C)c1ccc(C(=C2C=CC(=[N+](C)C)C=C2)c2ccccc2)cc1 [Malachitgrün]	2	normalisiert	Ein Ausfall
CCCCNC(=O)n1c(NC(=O)OC)nc2ccccc21 [Benomyl]	2	normalisiert	Keine Ausfälle
